Non-standard residues stand in square brackets, D forms with d. Residues, ends and D or L forms follow the SMILES beside them. *: point of attachment. Phe(F5) = N[C@@H](Cc1c(F)c(F)c(F)c(F)c1F)C(=O)O; hArg = N=C(N)NCCCC[C@H](N)C(=O)O; 12Ado = NCCCCCCCCCCCC(=O)O; Nle = CCCC[C@H](N)C(=O)O; Orn = NCCC[C@H](N)C(=O)O; Abu = CC[C@H](N)C(=O)O; PhAc = O=C(Cc1ccccc1)*
Experiments:
[1] = test system: SK-OV-3 xenograft; experiment: Xenograft tumor growth in nude mice, ovarian cancer SK-OV-3; assay type: in vivo; details: Panel L, 7 weeks, 5 μg/day s.c.
Protocol: (§1) The peptides' activity was compared with GHRH antagonist MIA-602. All statistical analyzses were performed from comparing GHRA antagonists to non-treated tumor (control).
(§2) Peptides and chemicals. GHRH antagonists MIA-602 and AVR-GHRH antagonists (see Table 2 above) were synthesized by solid phase methods and purified by HPLC. The peptides were dissolved in DMSO and further diluted in 10% 1, 2-propanediol. The final concentration of peptides was 50 µg/ml in 10% 1, 2-propanediol containing 0.1% of DMSO.
(§3) Cell culture. Human cancer cell lines including pancreatic (PANC-1 and CFPAC-1), lung (HCC827 and H460), stomach (NCI-N87), prostate (PC3), brest (MX-1 and HCC-1806), colorectal (HT-29), and ovarian (SK-OV-3 and OVCAR-3) were obtained from the American Type Culture Collection (ATCC) and cultured at 37° C. in a humidified 95% air/5% CO2 atmosphere in the medium recommended by ATCC.
(§4) Xenograft models of human cancers in nude mice. Female athymic (NCr nu/nu) nude mice, 5-to 6-weeks-old, obtained from the Envigo labs (Tampa, FL), were housed in laminar airflow cabinets under pathogen-free conditions with a 12-h light/12-h dark schedule, and were fed autoclaved standard chow and water. To generate mice with xenografted tumors, tumor xenografts were initiated by subcutaneous (s.c.) injection of […] human cancer cells into female nude mice. After about 4 weeks the resulting tumors were dissected and collected after removing necrosis tissues. The tumors were then cut into particles with size of ˜3 mm3 and transplanted s.c. by trocar needle into experimental animals. When tumors grew to the size of 50-60 mm3 (by volume), mice were randomized into groups and treated daily for 4-8 weeks by subcutaneous administration of 5 μg of GHRH antagonists MIA-602 or AVR-compounds (2-10 μg as indicated), or vehicle solutions (0.1% DMSO in 10% 1, 2-propanediol) respectively. Tumor sizes were measured weekly.
(§5) Statistical analysis. One-way ANOVA followed by Bonferroni comparison were performed. Data are expressed as Mean±SEM. To determine statistical significance between animal groups, two-tailed Student's t-test was conducted. Differences were considered significant when p<0.05.
(§6) Results. […] FIG. 1A-N represents in vivo inhibition of tumor growth during the treatment with GHRH antagonist MIA-602 and selected AVR antagonists in nude mice xenografted with various human tumors including pancreatic cancer PANC-1 (FIG. 1A) and CFPAC-1 (FIG. 1I); lung cancer HCC827 (FIGS. 1B, C) and H460 (FIG. 1H); stomach cancer N87 (FIGS. 1D-F); colon cancer HT-29 (FIG. 1G); breast cancer MX-1 and HCC-1806 (FIGS. 1J, K); ovarian cancer SK-OV-3 and OVACAR-3 (FIGS. 1L, M) and prostate cancer PC3 (FIG. 1N). See also Table 5.

[2] = test system: HT-29 xenograft; experiment: Xenograft tumor growth in nude mice, colon cancer HT-29; assay type: in vivo; details: Panel G, 6 weeks, 5 μg/day s.c.
Protocol: as §1, §2, §3, §4, §5, §6

[3] = test system: PC3 cells; experiment: In vitro cell viability, prostatic cancer PC3; assay type: cell-based, human; details: 5 μM, 72 h; relative to MIA602 = 1; Table 3A
Protocol: The inhibitory effects of the various synthesized GHRH antagonists were tested in cell proliferation assays in various human cancer cell lines including stomach cancer (KATOIII, N87), colon cancer (HT-29), urothelial cancer (J82, RT4), pancreatic cancer (PANC-1, CFPAC-1), prostatic cancer (PC3), breast cancer (MX-1, HCC1806), ovarian cancer (SK-OV-3, OVCAR-3) and lung cancer (HCC827, H460).
as §3, with “(NCI-N87 and KATOIII), urothelial (J82, RT4), prostatic” for “(NCI-N87), prostate”, “breast” for “brest”, “HCC 1806),” for “HCC-1806),”
In vitro cell viability. Cell viability was analyzed as follows: cancer cells including pancreatic (PANC-1 and CFPAC-1), lung (HCC827 and H460), stomach (NCI-N87 and KATOIII), urothelial (J82, RT4), prostatic (PC3) and breast (MX-1 and HCC 1806), colorectal (HT-29) and ovarian (SK-OV-3 and OVCAR-3) were grown on 96 well plates to ˜60% confluence, the cells were starved for 24 h in culture medium containing 0.5% FBS. Cells were then treated with GHRH antagonists MIA602 AVR compounds at concentrations of 1, 2.5 or 5 μM, or vehicle (0.1% DMSO) in quintuplicates for 72 hours. The medium was replaced every 48 hours. Cell viability was measured using CellTiter 96 aqueous one solution kit (Promega). Inhibitory effects of tested AVR compounds in comparison to that of MIA602 are presented as inhibitory potency.
Inhibitory effects of selected AVR compounds in comparison to that of MIA602 are presented as inhibitory potency (e.g., percentage of inhibition). […] The cell lines tested including lung cancer HCC827 (FIG. 2A), pancreatic cancer CFPAC-1 (FIG. 2B), stomach cancer N87 (FIG. 2C), colon cancer HT-29 (FIG. 2D), breast cancers MX-1 and HCC1806 (FIGS. 2E, F). […]

With CCCC[C@H](NC(=O)[C@@H](NC(=O)[C@H](CC(=O)O)NC(=O)[C@H](CCC(N)=O)NC(=O)[C@H](CC(C)C)NC(=O)[C@H](CC(C)C)NC(=O)[C@H](CCCN)NC(=O)[C@H](Cc1c[nH]cn1)NC(=O)[C@H](C)NC(=O)[C@H](CO)NC(=O)[C@H](CC(C)C)NC(=O)[C@H](CCC(N)=O)NC(=O)[C@H](CC)NC(=O)[C@H](CC(C)C)NC(=O)[C@@H](NC(=O)[C@H](CCCN)NC(=O)[C@H](Cc1c[nH]cn1)NC(=O)[C@H](Cc1ccc(OC)cc1)NC(=O)[C@H](CCCCNC(=N)N)NC(=O)[C@H](C)NC(=O)[C@@H](NC(=O)[C@H](Cc1c(F)c(F)c(F)c(F)c1F)NC(=O)[C@@H](NC(=O)[C@H](C)NC(=O)[C@H](CC(=O)O)NC(=O)[C@@H](CCCNC(=N)N)NC(=O)[C@H](Cc1ccc(O)cc1)NC(=O)CCCCCCCCCCCNC(=O)Cc1ccccc1)[C@@H](C)CC)[C@@H](C)O)C(C)C)[C@@H](C)CC)C(=O)N[C@H](CCCNC(=N)N)C(=O)N[C@@H](CCCCNC(=N)N)C(N)=O [MIA-602, PhAC-Ada, Tyr D-Arg, Asp, Ala, Ile, 5FPhe, Thr, Ala, Har, Tyr(Me), His, Orn, Val, Leu, Abu, Gin, Leu, Ser, Ala, His, Orn, Leu, Leu, Gin, Asp, Ile, Nle, D-Arg, Har NH2, reference compound] ({PhAc-12Ado}-Y[dR]DAI[Phe(F5)]TA[hArg]Y(Me)H[Orn]VL[Abu]QLSAH[Orn]LLQDI[Nle][dR][hArg]-NH2) the “Tumor Growth %” value [1] was 810.1%, the “% Inhibition” value ([1]; vs control) was 38.0% and the “Tumor Growth %” value [2] was 582.10%. For the same compound, the “Relative inhibitory potency, Prostatic PC3” value [3] was 1.
